Assay results as given in a melting point compilation (Tetko et al.; mined from patent text by program, amines drawn as free bases though some values may be those of a salt).

Compared with N#CCCNC(=O)c1n[nH]cc1NC(=O)c1ccccn1, CCCCCCOc1cccc2ncccc12 is lower in melting point: 223 to 224 °C for the first, 46 to 49 °C for the second.

First: O=C1CC2CC[C@@H](CN3C(=O)c4ccccc4C3=O)OC2O1 (stereo not given in full)
Second: Cn1nnnc1-c1ccc2c(c1)S(=O)(=O)c1ccccc1C2=O
The melting point of the first is lower: 186 to 189 °C for the first, 270 to 271 °C for the second.

Compared with NC(=O)c1nnc2n1-c1ccc(Cl)cc1C(c1ccccc1)=NC2, Cc1c(C(=O)O)nn(-c2ccc(Cl)cc2Cl)c1-c1ccc(Cl)cc1 is lower in melting point: 285 to 289 °C for the first, 211 °C for the second.

Compared with Cn1nc(O)ccc1=S, Cc1ccc2c(-c3cc(C(C)(C)C)c(O)c(C(C)(C)C)c3)nn(C)c2n1 is lower in melting point: 203 °C for the first, 178 to 181 °C for the second.

Compared with CCC(C)C[C@@H]1O[C@H](CC(=O)Nc2ccc(OC(F)(F)C(=O)O)cc2)C(=O)N(CC(C)(C)CO)c2ccc(Cl)cc21 (stereo not given in full), COCCOCc1c(C=O)sc2c(=O)c(C(=O)NCc3ccc(Cl)cc3)cn(C)c12 is higher in melting point: 149 to 150 °C for the first, 152 to 153 °C for the second.

First: CCN1CCN(C(=O)OC2C3=C(SCCS3)C(=O)N2c2ccc(Cl)cn2)CC1 (stereo not given)
Second: C=Cn1cc(C(=O)O)c(=O)c2cc(F)c(N3CCC(NC)C3)nc21 (stereo not given)
The melting point of the first is lower: 140 °C for the first, 160 to 161 °C for the second.

First: COc1cc(OC)c(C(=O)CCCCCl)cc1NS(=O)(=O)c1ccc(C(F)(F)F)cc1
Second: Cc1oc(-c2ccc(C(F)(F)F)cc2)nc1COc1ccc(CN(O)C(=O)NN)cc1
The melting point of the first is higher: 150 to 153 °C for the first, 94 to 95 °C for the second.

First: CC(C)C(=O)NCC(C)(C)N
Second: CC(C)(C)OC(=O)N1OC2C=CC1C2 (stereo not given)
The melting point of the first is higher: 134 to 138 °C for the first, 52 to 53 °C for the second.

First: CC(C)(O)CCCCc1ccc(CCc2ccc(O)c(O)c2)cc1
Second: Ic1ccc(CCc2ccc(I)cc2)cc1
The melting point of the first is lower: 124 to 126 °C for the first, 150 to 151 °C for the second.

First: CS(=O)c1ccc(-c2cc(C#N)nn2-c2ccc(F)cc2)cc1 (stereo not given)
Second: Cc1nc(-c2ccc(S(C)(=O)=O)cc2)c(-c2ccc(-c3cscn3)cc2)s1
The melting point of the first is lower: 104 to 105 °C for the first, 194 °C for the second.

First: CCS(=O)(=O)N(C)C1CC(C)(C)Oc2ccc(OCc3ccccc3)cc21 (stereo not given)
Second: CCCCOc1cc(C(=O)NCCCN2CCCCC2)cc(S(N)(=O)=O)c1Cc1ccccc1
The melting point of the first is lower: 91 to 93 °C for the first, 138 °C for the second.

First: CC(=O)C1c2cccc(O)c2C(=O)c2c(O)cccc21
Second: O=S(=O)(Br)c1cccc2cccnc12
The melting point of the first is higher: 146 °C for the first, 142 to 144 °C for the second.

Compared with CCC1Sc2cc(Br)ccc2NC1=O (stereo not given), CN1C(=O)c2[nH]c3cc(Cl)ccc3c2Oc2ccccc21 is higher in melting point: 100 °C for the first, 306 to 307 °C for the second.

First: CN(C)C(=S)Sc1cc(=O)n(Cc2ccccc2)s1
Second: COc1ccc2c(c1)CCc1ccccc1C2=O
The melting point of the first is higher: 184 to 186 °C for the first, 72 to 73 °C for the second.

First: Cc1ccnc(C(O)c2cc(F)ccc2F)c1 (stereo not given)
Second: Cc1ccc(OC2COc3ccc(OCc4ccc5cc(F)ccc5n4)cc3C2O)cn1 (stereo not given)
The melting point of the first is lower: 105 to 106 °C for the first, 164 to 165 °C for the second.

First: O=Cc1ccc2c(c1)CCC(C(=O)O)C2 (stereo not given)
Second: NC(=O)c1nc(-c2cccc(O)c2)nc2c1[nH]c(=O)n2[C@H]1CC[C@H](N)CC1
The melting point of the first is lower: 205 to 212 °C for the first, 299 to 301 °C for the second.

Compared with COc1cc(/C=C2/C(C)=C(CC(=O)O)c3cc(F)ccc32)cc(OC)c1OC, CS(=O)(=O)Nc1ccc(Sc2ccc([N+](=O)[O-])cc2)cc1Oc1ccc(F)cc1F is lower in melting point: 149 to 152 °C for the first, 124 to 127 °C for the second.

Compared with O=C(N[C@H](Cc1ccc(F)cc1)[C@@H](O)c1ccc(C(F)(F)F)cc1)c1ccc(F)c2ccccc12 (racemic), CCc1c(C(=O)C(=O)NC2=CC(=O)OC2)c2ccccc2n1Cc1ccc(Cl)cc1 is lower in melting point: 235 to 236 °C for the first, 192 to 195 °C for the second.

First: CNC(=O)c1c(Cl)ccc(Cl)c1OC
Second: Cc1ccc(Cl)cc1NC(=S)Nc1nc(C)c(C)s1
The melting point of the first is lower: 172 to 175 °C for the first, 188 to 189 °C for the second.

Compared with O=c1[nH]c2cccc(Cl)c2c(=O)n1CCCN1CC=C(c2ccc(Cl)cc2)CC1, c1ccc(CCC2CCN(Cc3nc4ccccc4[nH]3)CC2)cc1 is lower in melting point: 190 to 194 °C for the first, 170 °C for the second.

Compared with CCCc1cc(=O)oc2cc(O)cc(O)c12, CCNCC1CCN(c2c(F)c(C)c3c(=O)c(C(=O)O)cn(C4CC4)c3c2F)C1 (stereo not given) is lower in melting point: 227 to 229 °C for the first, 198 to 199 °C for the second.

First: Cc1cc2c(c(C(C)(C)C)c1)OC(=O)C2=C1C(=O)Oc2c1cc(C)cc2C(C)(C)C
Second: O=C(Nc1ccc(Oc2ccnc(NCCN3CCCCC3)n2)c2ccccc12)c1cc(F)cc(N2CCCCC2)c1
The melting point of the first is higher: 253 to 255 °C for the first, 88 to 89 °C for the second.

First: CSc1c(C=O)c(=O)n(C)c(=O)n1C
Second: COC(=O)CCn1c(=O)n2n(c1=O)C(C(=O)OC)C=CC2 (stereo not given)
The melting point of the first is higher: 104 °C for the first, 91 to 92 °C for the second.

First: Nc1ccc(-c2n[nH]c3c2sc2ccccc23)cc1
Second: COC(=O)COc1ccc(-c2cccc3sc4ccccc4c23)cc1
The melting point of the first is lower: 113 to 115 °C for the first, 148 to 150 °C for the second.

First: O=C(NCCCCCCCCNC(=O)c1ccc(OC(F)(F)F)cc1)c1ccc(OC(F)(F)F)cc1
Second: CC(=O)C1(OC(=O)CCl)CCC2C3CCC4=CC(=O)CCC4(C)C3CCC21C (stereo not given)
The melting point of the first is higher: 164 to 165 °C for the first, 134 to 135 °C for the second.
